Reference: patent US20240150340A1, “CDK Inhibitors And Their Use As Pharmaceuticals” (Prelude Therapeutics Incorporated, priority 2022, published 2024)

Key:
OVCAR3 p-RB = test: pRB ICW Assay in OVCAR3 Cells; assay type: cell-based; conditions: Homo sapiens, OVCAR-3, incubated with compound for 2 hours
Experimental: pRB ICW Assay in OVCAR3 Cells
OVCAR3 cells were maintained in RPMI (Corning, Catalog #: 10-040-CV) supplemented with 10% v/v FBS (Gibco, Catalog #: 26140-079), 1% v/v Penicillin Streptomycin (Gibco, Catalog #15140-122.) OVCAR3 cells grown at log phase were trypsinized, counted, and resuspended in fresh medium to reach a final density of 6.7e4 cells/mL and 75 μL of culture were dispensed into a 384-well plate (Falcon, cat #353962) using a Multidrop Combi dispenser (Thermo Scientific). The next day, compounds were dispensed as a 9-point, ½ log serial dilution using a Tecan digital dispenser (D300e), and cells were incubated with compound for 2 hours in a humidified incubator at 37° C. A reference compound at a final concentration of 10 μM was used as a control for maximum inhibition. Each compound was tested in duplicate for each experiment. At the end of the incubation, […] (Electron Microscopy, cat #15710) was slowly added to each well and the plate was incubated at room temperature (RT) for 30 minutes to fix cells. Cells were then permeabilized by incubating with 50 μL/well of wash buffer (1×PBS with 0.1% Triton X-100) 5×5 minutes, followed by 1 hour blocking with 30 μL/well of Odyssey blocking buffer (Li-COR, cat #927-40000), at RT. Anti-phosphor RB antibody (Cell signaling 8516S) was diluted 1:1000 in Odyssey blocking buffer and 20 μL was added to all wells and incubated overnight in 4° C. with gently rocking. The next day, cells were washed 5×5 min with 50 μL/well of wash buffer, followed with 1 hour incubation with secondary antibody and DRAQ5 diluted in Odyssey blocking buffer (1:500 dilution for secondary antibody and 1:2000 dilution for DRAQ5), 5×5 min washes, and one last wash with water. Plates were dried in 37° C. oven for 5 minutes and scanned using Li-COR Odyssey CLx imaging system to acquire intensities at 700 and 800 nm channels.

CDK2/Cyclin E2 = molecular target: T1, CDK2/Cyclin E2 (Homo sapiens, UniProt P24941); test: CDK2/CyclinE2 Enzymatic Activity Assay (TR-FRET); assay type: biochemical; conditions: ATP 1 mM final, read-out: CDK2_E1 IC50
T1 construct: Recombinant protein complex CDK2/Cyclin E2, expressed from insect cell, was purchased from ProQinase
Experimental: CDK2/CyclinE2 Enzymatic Activity Assay
The inhibitory activity of compounds was evaluated in vitro using TR-FRET assay with white 384-well low volume microplate (Greiner Bio-One). CDK2/Cyclin E2 catalyzed phosphorylation of peptide in the presence and absence of compounds was measured and used in IC50 determination. Recombinant protein complex CDK2/Cyclin E2, expressed from insect cell, was purchased from ProQinase. Testing compounds were dissolved in DMSO at 1 mM and tested in 9-dose IC50 mode. The reaction mixture was prepared by mixing CDK2/CyclinE2 (1 nM final), ULight-4E-BP1 (50 nM final, Perkinelmer, TRF0128-D), and ATP (1 mM final) in assay buffer (20 mM of HEPES pH 7.4, 1 mM of EGTA, 0.05% BSA, 0.005% Tween 20, and 1 mM TCEP). The compound of interest in DMSO was added to each well in 3-fold serial dilution by dispenser (TECAN D300E) to make a 9.9 μL of reaction mixture. After 20 minutes preincubation at room temperature, 0.1 μL MgCl2 (10 mM final) was added to initiate the reaction. Following a 45 minute incubation at 37° C., the reaction was stopped by addition of 2 μL of quenching buffer consisting of Lance detection buffer (Perkinelmer CR97-100C), LANCE Ultra Europium-anti-P-4E-BP1 (Perkinelmer, TRF0216-D), EDTA, and incubated at room temperature for additional 60 minutes in the dark. The reaction signal was measured by Envision multimode plate reader (PerkinElmer, 2102-0010). IC50 values were determined by fitting the data to the standard 4 parameters with Hill Slope using GraphPad Prism software.

Structure (SMILES)	IC50 (OVCAR3 p-RB)	IC50 (CDK2/Cyclin E2)
CC(C)(O)c1cnc(-c2nc(NC3CCN(S(C)(=O)=O)CC3)ncc2C(F)(F)F)s1 [Example 95, 2-(2-(2-((1-(methylsulfonyl)piperidin-4-yl)amino)-5-(trifluoromethyl)pyrimidin-4-yl)thiazol-5-yl)propan-2-ol]	100 to 500 nM	≤ 100 nM
CC(C)(O)c1cnc(-c2nc(N[C@H]3CCN(S(C)(=O)=O)C[C@H]3F)ncc2C(F)(F)F)s1 [Example 96, 2-(2-(2-(((3R,4S)-3-fluoro-1-(methylsulfonyl)piperidin-4-yl)amino)-5-(trifluoromethyl)pyrimidin-4-yl)thiazol-5-yl)propan-2-ol]	≤ 100 nM	≤ 100 nM
CC(C)(O)c1cnc(-c2nc(N[C@@H]3CCN(S(C)(=O)=O)C[C@H]3F)ncc2C(F)(F)F)s1 [Example 97, 2-(2-(2-(((3R,4R)-3-fluoro-1-(methylsulfonyl)piperidin-4-yl)amino)-5-(trifluoromethyl)pyrimidin-4-yl)thiazol-5-yl)propan-2-ol]	≤ 100 nM	≤ 100 nM
Cn1cnc(S(=O)(=O)N2CCC(Nc3ncc(C(F)(F)F)c(-c4ncc(C(C)(C)O)s4)n3)CC2)c1 [Example 98, 2-(2-(2-((1-((1-methyl-1H-imidazol-4-yl)sulfonyl)piperidin-4-yl)amino)-5-(trifluoromethyl)pyrimidin-4-yl)thiazol-5-yl)propan-2-ol]	≤ 100 nM	≤ 100 nM
Cn1cc(S(=O)(=O)N2CCC(Nc3ncc(C(F)(F)F)c(-c4ncc(C(C)(C)O)s4)n3)CC2)cn1 [Example 99, 2-(2-(2-((1-((1-methyl-1H-pyrazol-4-yl)sulfonyl)piperidin-4-yl)amino)-5-(trifluoromethyl)pyrimidin-4-yl)thiazol-5-yl)propan-2-ol]	100 to 500 nM	≤ 100 nM
Cn1cc(S(=O)(=O)N2CC[C@@H](Nc3ncc(C(F)(F)F)c(-c4ncc(C(C)(C)O)s4)n3)[C@H](F)C2)cn1 [Example 101, 2-(2-(2-(((3R,4R)-3-fluoro-1-((1-methyl-1H-pyrazol-4-yl)sulfonyl)piperidin-4-yl)amino)-5-(trifluoromethyl)pyrimidin-4-yl)thiazol-5-yl)propan-2-ol]	≤ 100 nM	≤ 100 nM
CC(O)(c1cnc(-c2nc(NC3CCN(S(C)(=O)=O)CC3)ncc2C(F)(F)F)s1)C(F)F (stereo not shown) [Example 102, 1,1-difluoro-2-(2-(2-((1-(methylsulfonyl)piperidin-4-yl)amino)-5-(trifluoromethyl)pyrimidin-4-yl)thiazol-5-yl)propan-2-ol]	≤ 100 nM	≤ 100 nM
C[C@@H]1CN(S(=O)(=O)c2cnn(C)c2)CC[C@@H]1Nc1ncc(C(F)(F)F)c(-c2ncc(C(C)(O)C(F)(F)F)s2)n1 (stereo partly drawn) [Example 105, 1,1,1-trifluoro-2-(2-(2-(((3R,4S)-3-methyl-1-((1-methyl-1H-pyrazol-4-yl)sulfonyl)piperidin-4-yl)amino)-5-(trifluoromethyl)pyrimidin-4-yl)thiazol-5-yl)propan-2-ol]	≤ 100 nM	≤ 100 nM
CS(=O)(=O)N1CCC(Nc2ncc(C(F)(F)F)c(-c3ncc(C4(O)CCC4)s3)n2)CC1 [Example 106, 1-(2-(2-((1-(methylsulfonyl)piperidin-4-yl)amino)-5-(trifluoromethyl)pyrimidin-4-yl)thiazol-5-yl)cyclobutan-1-ol]	100 to 500 nM	≤ 100 nM
Cn1cc(S(=O)(=O)N2CC[C@@H](Nc3ncc(C(F)(F)F)c(-c4ncc(CC(C)(C)O)s4)n3)[C@H](F)C2)cn1 [Example 110, 1-(2-(2-(((3R,4R)-3-fluoro-1-((1-methyl-1H-pyrazol-4-yl)sulfonyl)piperidin-4-yl)amino)-5-(trifluoromethyl)pyrimidin-4-yl)thiazol-5-yl)-2-methylpropan-2-ol]	100 to 500 nM	≤ 100 nM
C[C@@H]1CN(S(=O)(=O)c2cnn(C)c2)CC[C@@H]1Nc1ncc(C(F)(F)F)c(-c2ncc(CC(C)(C)O)s2)n1 [Example 111, 2-methyl-1-(2-(2-(((3R,4S)-3-methyl-1-((1-methyl-1H-pyrazol-4-yl)sulfonyl)piperidin-4-yl)amino)-5-(trifluoromethyl)pyrimidin-4-yl)thiazol-5-yl)propan-2-ol]	≤ 100 nM	≤ 100 nM
CC(O)c1cnc(-c2nc(NC3CCN(S(C)(=O)=O)CC3)ncc2C(F)(F)F)s1 (stereo not shown) [Example 112, 1-(2-(2-((1-(methylsulfonyl)piperidin-4-yl)amino)-5-(trifluoromethyl)pyrimidin-4-yl)thiazol-5-yl)ethan-1-ol]	≤ 100 nM	≤ 100 nM
CS(=O)(=O)N1CCC(Nc2ncc(C(F)(F)F)c(-c3ncc(C(O)C(F)(F)F)s3)n2)CC1 (stereo not shown) [Example 113, 2,2,2-trifluoro-1-(2-(2-((1-(methylsulfonyl)piperidin-4-yl)amino)-5-(trifluoromethyl)pyrimidin-4-yl)thiazol-5-yl)ethan-1-ol]	≤ 100 nM	≤ 100 nM

The next lines start with the values.

IC50 (OVCAR3 p-RB)	IC50 (CDK2/Cyclin E2)	Structure (SMILES)
≤ 100 nM	≤ 100 nM	CC(O)c1cnc(-c2nc(N[C@@H]3CCN(S(=O)(=O)c4cnn(C)c4)C[C@H]3F)ncc2C(F)(F)F)s1 (stereo partly drawn) [Example 115, 1-(2-(2-(((3R,4R)-3-fluoro-1-((1-methyl-1H-pyrazol-4-yl)sulfonyl)piperidin-4-yl)amino)-5-(trifluoromethyl)pyrimidin-4-yl)thiazol-5-yl)ethan-1-ol]
≤ 100 nM	≤ 100 nM	CC(C)(O)c1sc(-c2nc(N[C@@H]3CCN(S(C)(=O)=O)C[C@H]3F)ncc2C(F)(F)F)cc1C#N [Example 116, 5-(2-(((3R,4R)-3-fluoro-1-(methylsulfonyl)piperidin-4-yl)amino)-5-(trifluoromethyl)pyrimidin-4-yl)-2-(2-hydroxypropan-2-yl)thiophene-3-carbonitrile]
≤ 100 nM	≤ 100 nM	Cn1cc(S(=O)(=O)N2CCC(Nc3ncc(C(F)(F)F)c(-c4cc(C#N)c(C(C)(C)O)s4)n3)CC2)cn1 [Example 117, 2-(2-hydroxypropan-2-yl)-5-(2-((1-((1-methyl-1H-pyrazol-4-yl)sulfonyl)piperidin-4-yl)amino)-5-(trifluoromethyl)pyrimidin-4-yl)thiophene-3-carbonitrile]
100 to 500 nM	≤ 100 nM	C[C@@H]1CN(S(=O)(=O)c2cnn(C)c2)CC[C@@H]1Nc1ncc(C(F)(F)F)c(-c2cc(C#N)c(C(C)(C)O)s2)n1 [Example 118, 2-(2-hydroxypropan-2-yl)-5-(2-(((3R,4S)-3-methyl-1-((1-methyl-1H-pyrazol-4-yl)sulfonyl)piperidin-4-yl)amino)-5-(trifluoromethyl)pyrimidin-4-yl)thiophene-3-carbonitrile]
≤ 100 nM	≤ 100 nM	Cn1cc(S(=O)(=O)N2CC[C@@H](Nc3ncc(C(F)(F)F)c(-c4cc(C#N)c(C(C)(C)O)s4)n3)[C@H](F)C2)cn1 [Example 119, 5-(2-(((3R,4R)-3-fluoro-1-((1-methyl-1H-pyrazol-4-yl)sulfonyl)piperidin-4-yl)amino)-5-(trifluoromethyl)pyrimidin-4-yl)-2-(2-hydroxypropan-2-yl)thiophene-3-carbonitrile]
≤ 100 nM		Cc1cnc(N[C@H]2CCN(S(C)(=O)=O)C[C@H]2F)nc1-c1ncc(CC(C)(C)O)s1 [Example 155, 1-(2-(2-(((3R,4S)-3-fluoro-1-(methylsulfonyl)piperidin-4-yl)amino)-5-methylpyrimidin-4-yl)thiazol-5-yl)-2-methylpropan-2-ol]
